Key:
giant foxtail = test: Test B pre/postemergence giant foxtail; assay type: in vivo, Setaria faberii
Summary of the method: (§1)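 Herbicidal effect was estimated by eye on a ten-point control scale after plants spent twelve to sixteen days in a greenhouse following soil or foliar treatment. Foliar sprays targeted plants at one to four leaves; all doses were formulated in a non-phytotoxic solvent with surfactant.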

wheat = test: Test B pre/postemergence wheat; assay type: in vivo, Triticum aestivum
Summary of the method: as §1

cocklebur = test: Test B pre/postemergence cocklebur; assay type: in vivo, Xanthium strumarium
Summary of the method: as §1

purple nutsedge = test: Test B pre/postemergence purple nutsedge; assay type: in vivo, Cyperus rotundus
Summary of the method: as §1

blackgrass = test: Test B pre/postemergence blackgrass; assay type: in vivo, Alopecurus myosuroides
Summary of the method: as §1

wild oat = test: Test B pre/postemergence wild oat; assay type: in vivo, Avena fatua
Summary of the method: as §1

sugar beet = test: Test B pre/postemergence sugar beet; assay type: in vivo, Beta vulgaris
Summary of the method: as §1

rice = test: Test B flood test rice; assay type: in vivo, Oryza sativa
Summary of the method: (§2)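 Plants were grown to the 2-leaf stage before treatment with test chemical, then held in a greenhouse for twelve to sixteen days. Injury was visually rated against untreated controls on a 0–10 scale, where 0 is no effect and 10 is complete control.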

morningglory = test: Test B pre/postemergence morningglory; assay type: in vivo, Ipomoea hederacea
Summary of the method: as §1

surinam grass = test: Test B pre/postemergence surinam grass; assay type: in vivo, Brachiaria decumbens
Summary of the method: as §1

crabgrass = test: Test B pre/postemergence crabgrass; assay type: in vivo, Digitaria sanguinalis
Summary of the method: as §1

velvetleaf = test: Test B pre/postemergence velvetleaf; assay type: in vivo, Abutilon theophrasti
Summary of the method: as §1

bamyardgrass = test: Test B flood test barnyardgrass; assay type: in vivo, Echinochloa crus-galli
Summary of the method: as §2

smallflower flatsedge = test: Test B flood test smallflower flatsedge; assay type: in vivo, Cyperus difformis
Summary of the method: as §2

rape = test: Test B pre/postemergence rape; assay type: in vivo, Brassica napus
Summary of the method: as §1

pigweed = test: Test B pre/postemergence pigweed; assay type: in vivo, Amaranthus retroflexus
Summary of the method: as §1

[1] = Postemergence, Rate 250 g/ha, scale 0 to 10
[2] = Postemergence, Rate 500 g/ha, scale of 0 to 10 where 0 is no effect and 10 is complete control
[3] = Preemergence, Rate 62 g/ha, scale 0 to 10 (0 no effect, 10 complete control)
[4] = Preemergence, Rate 125 g/ha, scale of 0 to 10 where 0 is no effect and 10 is complete control
[5] = Preemergence, Rate 250 g/ha, scale 0 to 10, 0 is no effect, 10 is complete control
[6] = Preemergence, Rate 500 g/ha, scale 0 to 10, 0 is no effect, 10 is complete control
[7] = Rate 62 g/ha, Postemergence, scale of 0 to 10 where 0 is no effect and 10 is complete control
[8] = Rate 125 g/ha, Postemergence, scale 0 to 10, 0 is no effect, 10 is complete control
[9] = Postemergence block (flood test species), Rate 250 g/ha, scale 0 to 10
[10] = Postemergence section (flood test species), Rate 500 g/ha, scale of 0 to 10 where 0 is no effect and 10 is complete control
[11] = Rate 125 g/ha, Postemergence section (flood test species), scale 0 to 10, 0 is no effect, 10 is complete control

CC(C)N(C(=O)n1oc(=O)n(CC#N)c1=O)c1ccccc1 [Compound 434]
Giant foxtail plant response rating (giant foxtail; [1]): 1 | Giant foxtail plant response rating (giant foxtail; [2]): 4 | Plant response rating, Giant foxtail (giant foxtail; [3]): 0 | Plant response rating, Giant foxtail (giant foxtail; [4]): 0 | Giant foxtail plant response rating (giant foxtail; [5]): 0 | Giant foxtail plant response rating (giant foxtail; [6]): 2 | Giant foxtail plant response rating (giant foxtail; [7]): 0 | Giant foxtail plant response rating (giant foxtail; [8]): 0 | Wheat plant response rating (wheat; [1]): 0 | Wheat plant response rating (wheat; [2]): 0 | Plant response rating, Wheat (wheat; [3]): 0 | Plant response rating, Wheat (wheat; [4]): 0 | Wheat plant response rating (wheat; [5]): 0 | Wheat plant response rating (wheat; [6]): 0 | Wheat plant response rating (wheat; [8]): 0 | Cocklebur plant response rating (cocklebur; [1]): 0 | Cocklebur plant response rating (cocklebur; [2]): 0 | Plant response rating, Cocklebur (cocklebur; [3]): 0 | Plant response rating, Cocklebur (cocklebur; [4]): 0 | Cocklebur plant response rating (cocklebur; [5]): 0 | Cocklebur plant response rating (cocklebur; [6]): 0 | Cocklebur plant response rating (cocklebur; [7]): 0 | Cocklebur plant response rating (cocklebur; [8]): 0 | Nutsedge plant response rating (purple nutsedge; [1]): 0 | Nutsedge plant response rating (purple nutsedge; [2]): 0 | Plant response rating, Nutsedge (purple nutsedge; [3]): 0 | Plant response rating, Nutsedge (purple nutsedge; [4]): 0 | Nutsedge plant response rating (purple nutsedge; [5]): 0 | Nutsedge plant response rating (purple nutsedge; [6]): 0 | Nutsedge plant response rating (purple nutsedge; [8]): 0 | Blackgrass plant response rating (blackgrass; [1]): 0 | Blackgrass plant response rating (blackgrass; [2]): 0 | Plant response rating, Blackgrass (blackgrass; [3]): 0 | Plant response rating, Blackgrass (blackgrass; [4]): 0 | Blackgrass plant response rating (blackgrass; [5]): 0 | Blackgrass plant response rating (blackgrass; [6]): 0 | Blackgrass plant response rating (blackgrass; [7]): 0 | Blackgrass plant response rating (blackgrass; [8]): 0 | Wild oats plant response rating (wild oat; [1]): 0 | Wild oats plant response rating (wild oat; [2]): 0 | Plant response rating, Wild oats (wild oat; [3]): 0 | Plant response rating, Wild oats (wild oat; [4]): 0 | Wild oats plant response rating (wild oat; [5]): 0 | Wild oats plant response rating (wild oat; [6]): 0 | Wild oats plant response rating (wild oat; [8]): 0 | Sugarbeets plant response rating (sugar beet; [1]): 0 | Sugarbeets plant response rating (sugar beet; [2]): 0 | Plant response rating, Sugarbeets (sugar beet; [3]): 0 | Plant response rating, Sugarbeets (sugar beet; [4]): 0 | Sugarbeets plant response rating (sugar beet; [5]): 0 | Sugarbeets plant response rating (sugar beet; [6]): 0 | Sugarbeets plant response rating (sugar beet; [8]): 0 | Rice plant response rating (rice; [9]): 0 | Rice plant response rating (rice; [10]): 0 | Rice plant response rating (rice; [11]): 0 | Morningglory plant response rating (morningglory; [1]): 1 | Morningglory plant response rating (morningglory; [2]): 1 | Plant response rating, Morningglory (morningglory; [3]): 0 | Plant response rating, Morningglory (morningglory; [4]): 0 | Morningglory plant response rating (morningglory; [5]): 0 | Morningglory plant response rating (morningglory; [6]): 0 | Morningglory plant response rating (morningglory; [8]): 0 | B. signalgrass plant response rating (surinam grass; Postemergence, Rate 250 g/ha, scale 0 to 10, 0 no effect, 10 complete control): 0 | B. signalgrass plant response rating (surinam grass; [2]): 0 | Plant response rating, B. signalgrass (surinam grass; [3]): 0 | Plant response rating, B. signalgrass (surinam grass; [4]): 0 | B. signalgrass plant response rating (surinam grass; [5]): 0 | B. signalgrass plant response rating (surinam grass; [6]): 0 | B. signalgrass plant response rating (surinam grass; [7]): 0 | B. signalgrass plant response rating (surinam grass; [8]): 0 | Crabgrass plant response rating (crabgrass; [1]): 1 | Crabgrass plant response rating (crabgrass; [2]): 4 | Plant response rating, Crabgrass (crabgrass; [3]): 0 | Plant response rating, Crabgrass (crabgrass; [4]): 0 | Crabgrass plant response rating (crabgrass; [5]): 0 | Crabgrass plant response rating (crabgrass; [6]): 1 | Crabgrass plant response rating (crabgrass; [7]): 0 | Crabgrass plant response rating (crabgrass; [8]): 0 | Velvetleaf plant response rating (velvetleaf; [1]): 0 | Velvetleaf plant response rating (velvetleaf; [2]): 0 | Plant response rating, Velvetleaf (velvetleaf; [3]): 0 | Plant response rating, Velvetleaf (velvetleaf; [4]): 0 | Velvetleaf plant response rating (velvetleaf; [5]): 0 | Velvetleaf plant response rating (velvetleaf; [6]): 0 | Velvetleaf plant response rating (velvetleaf; [8]): 0 | Barnyardgrass plant response rating (bamyardgrass; [9]): 0 | Barnyardgrass plant response rating (bamyardgrass; [10]): 0 | Barnyardgrass plant response rating (bamyardgrass; Rate 62 g/ha, Postemergence (flood test species), scale of 0 to 10 where 0 is no effect and 10 is complete control): 0 | Barnyardgrass plant response rating (bamyardgrass; [11]): 0 | S. Flatsedge plant response rating (smallflower flatsedge; [9]): 0 | S. Flatsedge plant response rating (smallflower flatsedge; [10]): 0 | S. Flatsedge plant response rating (smallflower flatsedge; [11]): 0 | Rape plant response rating (rape; [1]): 0 | Rape plant response rating (rape; [2]): 0 | Plant response rating, Rape (rape; [3]): 0 | Plant response rating, Rape (rape; [4]): 0 | Rape plant response rating (rape; [5]): 0 | Rape plant response rating (rape; [6]): 0 | Rape plant response rating (rape; [8]): 0 | Redroot pigweed plant response rating (pigweed; [1]): 0 | Redroot pigweed plant response rating (pigweed; [2]): 0 | Plant response rating, Redroot pigweed (pigweed; [3]): 0 | Plant response rating, Redroot pigweed (pigweed; [4]): 0 | Redroot pigweed plant response rating (pigweed; [5]): 0 | Redroot pigweed plant response rating (pigweed; [6]): 4 | Redroot pigweed plant response rating (pigweed; [8]): 0

From patent publication US6737383B1, “Herbicidal oxadiazolidines” (priority 1999, dated 2004)
